Data on three compounds can be found in patent US11058654B2, “Compositions and methods for the treatment of hemoglobinopathies and thalassemias” (AXCELLA HEALTH INC., priority 2018, dated 2021).

For data set [1], the system named is IL-6. The data set is described as follows: LPS-induced IL-6 secretion in primary human PBMC-derived macrophages (ELISA). In kind it is cell-based. The conditions noted are these: for effect on LPS-induced IL-6 secretion: in words. The procedure: Unpurified buffy coats (Research Blood Components) were carefully poured into 50 mL centrifuge tubes and diluted with room temperature Dulbecco's Phosphate Buffered Saline (dPBS) with Calcium and Magnesium (Gibco). Diluted buffy coats were further divided into four total 50 mL centrifuge tubes at 20 mL per tube. Lymphocyte Separation Medium (Corning) was carefully pipetted to the bottom of each centrifuge tube. Mixtures were centrifuged at 850× g for 32 minutes at 20° C. with 0 deceleration and acceleration.
The PBMC layer was separated from other components after centrifugation and added to new 50 mL centrifuge tube containing 25 mL dPBS. Total volume was brought up to 50 mL with dPBS and centrifuged at 600× g for 10 minutes at 20° C. with acceleration of 9, deceleration of 5. Supernatant was carefully removed from cell pellets. The cell pellets were resuspended using 10 mL dPBS. Total volume was then brought up to 50 mL using dPBS and centrifuged at 450× g for 5 min at 20° C. with acceleration of 9, deceleration of 9. The supernatant removal and cell pellet resuspension was repeated again.
The supernatant was then carefully removed from cell pellets. Cell pellets were resuspended in 10 mL dPBS without calcium or magnesium and filtered through a 70 uM cell strainer. The total PBMC number was determined using a Cellometer K2 automated cell counter. A total of 5E6 cells were saved for flow cytometric analysis. Remaining cells were centrifuged at 490× g for 5 minutes at 20° C. with acceleration of 9, deceleration of 9.
CD14+ cells were selected using EasySep™ Human CD14 Positive Selection Kit II ([…] Technologies). Cells were resuspended in cold EasySep™ Buffer ([…] Technologies) at 1×10^8 cells/mL. A total of 100 uL/mL EasySep™ Human CD14 Positive Selection Cocktail II was added to the cell suspension, mixed, and incubated at room temperature for 10 minutes. A total of 100 uL/mL RapidSpheres were added to the mixture and incubated at room temperature for 3 minutes after mixing, then RoboSep buffer was added to bring up the total volume to 10 mL. The mixture in a 15 mL tube was placed in magnet and incubated at room temperature for 3 minutes. Supernatant was discarded and 10 mL fresh EasySep™ buffer was added to 15 mL tube. The addition of RoboSep buffer, mixing, and discarding of supernatant was repeated two more times.
Negative and positive fractions were centrifuged at 490× g for 5 minutes at 20° C. with acceleration of 9, deceleration of 9, and resuspended in DMEM (Gibco) and 10% Heat Inactivated Fetal Bovine Serum (Atlanta Bio) and Penicillin/Streptomycin. Cells were counted and centrifuged again at […] for 5 minutes at 20° C. with acceleration of 9, deceleration of 9. After centrifugation, cell were resuspended in DMEM (Gibco) and 10% Heat Inactivated Fetal Bovine Serum (Atlanta Bio) and Penicillin/Streptomycin containing 500 U/mL […] and plated at 1-2×10^6 cells/mL on 10 cm tissue culture plates. Cells were kept in 37° C., 5% CO2 in between feedings/harvest.
Cells were fed every 3-4 days by removing media and unattached cells, centrifuging at 490× g for 5 minutes at 20 C with acceleration of 9, deceleration of 9, and resuspending in fresh DMEM (Gibco) and 10% Heat Inactivated Fetal Bovine Serum (Atlanta Bio) and Penicillin/Streptomycin containing GM-CSF. Resuspended cells were seeded back onto 10 cm tissue culture plates and incubated at 37° C., 5% CO2. Differentiated macrophages were used for subsequent experiments.
Primary human PMBC derived macrophages were seeded on day 0 at 3.0E4 cells per well in 96-well microplates (ThermoFisher) in Dulbecco's Modified Eagle Medium (DMEM) (Gibco) supplemented with penicillin-streptomycin (Hyclone) and 10% heat inactivated fetal bovine serum (HI-FBS) (Atlanta Bio) and incubated overnight at 37° C., 5% CO2. On day 1, cells were washed once with 150 uL per well DPBS (Gibco) and treated with 75 uL of: • a. […]
A general note: An ELISA detects its analyte on a solid surface through an enzyme-linked reagent.

Data set [2] is described as follows: Plasma pharmacokinetics after oral gavage in male Sprague-Dawley rats. In kind it is in vivo. More on the design: AUC(0-t): concentration or dose not given beside the values. Conditions: rat, plasma, Mean, oral gavage of RCitNacQCarLHKVS, male Sprague-Dawley rats; for AUC(0-t): read-out: AUC0-5 h; for Cmax: read-out: Cmax; for Tmax: read-out: Tmax. The procedure: A pharmacokinetic (PK) analysis was performed on plasma concentrations of various combinations of amino acid compounds administered by oral gavage to male Sprague-Dawley rats. Four animals were dosed with RCitNacQCarLHKVS, a test article comprising ten amino acid components: arginine, citrulline, N-acetylcysteine, glutamine, carnitine, leucine, histidine, lysine, valine, and serine (Table 19). Animals were fasted for 2 hours prior to dose administration. Plasma samples were taken immediately pre-dose and 0.5, 1, 2, 3, 4, and 5 hours post-dose.
Bioanalysis of collected plasma samples for amino acid content was performed at Axcella Health using an LC-MS method (Section 2.1). Bioanalytical data were analyzed using noncompartmental analysis with Phoenix® WinNonLin® (v8.1).
An LC/MS method utilizing HILIC chromatography and high-resolution mass spectrometry was used to quantify amino acids in rat plasma. The samples were prepared by protein precipitation and spiked with stable-labeled amino acid internal standard for each analyte. […] QCs, spiked into rat plasma, were utilized to assess the accuracy of the method.
PK parameters of test article components were determined from individual rat plasma concentration-time data by employing a noncompartmental approach using Phoenix WinNonlin® (Version 8.1) software. Nominal times were used to calculate the toxicokinetic parameters. […] This program analyzed data using the standard methods described by Gibaldi and Perrier (see M. Gibaldi and D. Perrier, Pharmacokinetics, 2nd edition, New York: Marcel-Dekker, Inc.; 1982.).

For `N=C(N)NCCC[C@H](N)C(=O)O` [Arginine], the “IL-6 Measurements Mean” value in data set [1] (Donor 1, Arginine Conc. 109 μM (baseline)) is listed as 0; in data set [1] (Donor 1, Arginine Conc. 1088 μM, baseline subtracted) it was −181.36; in data set [1] (Donor 1, Arginine Conc. 2720 μM, baseline subtracted) it was −186.57; in data set [1] (Donor 1, Arginine Conc. 5440 μM, baseline subtracted) it was 357.4394; in data set [1] (Donor 2, Arginine Conc. 109 μM (baseline)) it was 2.37E−15; in data set [1] (Donor 2, Arginine Conc. 1088 μM, baseline subtracted), −9.701. The “IL-6 Measurements Mean” value in data set [1] (Donor 2, Arginine Conc. 2720 μM, baseline subtracted) is recorded as −13.6102; in data set [1] (Donor 2, Arginine Conc. 5440 μM, baseline subtracted), −12.4164; in data set [1] (Donor 3, Arginine Conc. 109 μM (baseline)), 0; in data set [1] (Donor 3, Arginine Conc. 1088 μM, baseline subtracted), 31.5786; in data set [1] (Donor 3, Arginine Conc. 2720 μM, baseline subtracted) it was −7.503; in data set [1] (Donor 3, Arginine Conc. 5440 μM, baseline subtracted), −6.81. In data set [1] (Donor 1), the “effect on LPS-induced IL-6 secretion” value was “increased”. The AUC(0-t) in data set [2] came to 2210 µM·h. Besides, the Cmax in data set [2] came out at 565 µM. For the same compound, in data set [2], the Tmax is 82.8 min.

Turning to `NC(=O)CC[C@H](N)C(=O)O` [Glutamine], the “effect on LPS-induced IL-6 secretion” value in data set [1] (Donor 1) is “increased”. For the same compound, in data set [1] (Donor 2), the “effect on LPS-induced IL-6 secretion” value is given as “increased”. The “effect on LPS-induced IL-6 secretion” value in data set [1] (Donor 3) is reported as “significantly increased”. Also, in data set [2], the AUC(0-t) was found to be 2370 µM·h, the peak concentration (Cmax) was 605 µM and the Tmax is 30 min.

With `CC(=O)N[C@@H](CS)C(=O)O` [N-Acetyl Cysteine, N-acetylcysteine], the “IL-6 Measurements Mean” value in data set [1] (Donor 1, Conc. 0 X (baseline)) is 0; in data set [1] (Donor 2, Conc. 0 X (baseline)), −2.4E−15; in data set [1] (Donor 2, Conc. 20 X, baseline subtracted), −24.9999; in data set [1] (Donor 3, Conc. 0 X (baseline)), −9.5E−15. The “effect on LPS-induced IL-6 secretion” value in data set [1] (Donor 1), in data set [1] (Donor 2) and in data set [1] (Donor 3) was “significantly reduced” throughout.

One may read the Cmax as the highest concentration seen after dosing. The term Tmax denotes the time at which the peak concentration occurs.
